# Assay results published in US10906880B2, “Kind of isothiazole oxime ether-containing strobilurin derivatives and its preparation methods and application” (priority 2016, dated 2021).
# Several values for one entry are separate records, joined by “and”; a condition that tells them apart may be missing. Identical values can stand only once. Like-named read-outs stand apart in the source and are kept apart here.
# Key:
# TMV [1] = assay: Anti-TMV activity on tobacco, protection mode; format: in vivo, tobacco mosaic virus; conditions: 100 μg/mL; for inhibition at 100 µg/mL: Tobacco mosaic virus, read-out: Anti-TMV activity inhibition, Protection effect
# [2] = system: Phytophthora infestans (Mont) de Bary; assay: microbe, parasite or virus in culture; format: cell-based; conditions: for Fungicidal activity inhibition, PI: 50 μg/mL, P. infestans (Mont.) de Bary
# TMV [3] = assay: Anti-TMV activity on tobacco, inactivation mode; format: in vivo, tobacco mosaic virus; conditions: 100 μg/mL; for inhibition at 100 µg/mL: Tobacco mosaic virus, read-out: Anti-TMV activity inhibition, Inactivation effect
# TMV [4] = assay: Anti-TMV activity on tobacco, curative mode; format: in vivo, tobacco mosaic virus; conditions: 100 μg/mL, tobacco; for inhibition at 100 µg/mL: Tobacco mosaic virus, read-out: Anti-TMV activity inhibition, Curative effect
# Sclerotinia sclerotiorum = assay: Fungicide activity, mycelial growth inhibition on PDA plate; format: cell-based; conditions: for inhibition at 50 µg/mL: Sclerotinia sclerotiorum, read-out: Fungicidal activity inhibition, SS
# Botrytis cinerea = assay: as above; format: cell-based; conditions: for inhibition at 50 µg/mL: Botrytis cinerea, read-out: Fungicidal activity inhibition, BC
# Physalospora piricola = assay: as above; format: cell-based; conditions: for inhibition at 50 µg/mL: 50 μg/mL, P. piricola, read-out: Fungicidal activity inhibition, PP
# Gibberella zeae = assay: microbe, parasite or virus in culture; format: cell-based; conditions: for Fungicidal activity inhibition, GZ: 50 μg/mL, G. zeae; for inhibition at 50 µg/mL: Fusarium graminearum, read-out: Fungicidal activity inhibition, GZ, 50 μg/mL, G. zeae
# Cercospora arachidicola = assay: Fungicide activity, mycelial growth inhibition on PDA plate; format: cell-based; conditions: for inhibition at 50 µg/mL: Mycosphaerella arachidis, read-out: Fungicidal activity inhibition, CA
# Pellicularia sasakii = assay: Fungicide activity, mycelial growth inhibition on PDA plate; format: cell-based; conditions: for inhibition at 50 µg/mL: 50 μg/mL, P. sasakii, read-out: Fungicidal activity inhibition, PS
# Rhizoctonia cerealis = assay: as above; format: cell-based; conditions: for inhibition at 50 µg/mL: Ceratobasidium cereale, read-out: Fungicidal activity inhibition, RC
# Alternaria solani = assay: as above; format: cell-based; conditions: for inhibition at 50 µg/mL: Alternaria solani, read-out: Fungicidal activity inhibition, AS
# TMV [5] = assay: Anti-TMV activity on tobacco, induction mode (systemic acquired resistance); format: in vivo, tobacco mosaic virus; conditions: 100 μg/mL; for inhibition at 100 µg/mL: Tobacco mosaic virus, read-out: Anti-TMV activity inhibition, Induction effect
SMILES,inhibition at 100 µg/mL (TMV [1]),"Fungicidal activity inhibition, PI [2]",inhibition at 100 µg/mL (TMV [3]),inhibition at 100 µg/mL (TMV [4]),"inhibition at 50 µg/mL (Sclerotinia sclerotiorum; 50 μg/mL, S. sclerotiorum)",inhibition at 50 µg/mL (Sclerotinia sclerotiorum),"inhibition at 50 µg/mL (Botrytis cinerea; 50 μg/mL, B. cinerea)",inhibition at 50 µg/mL (Botrytis cinerea),inhibition at 50 µg/mL (Physalospora piricola),"Fungicidal activity inhibition, GZ (Gibberella zeae)","inhibition at 50 µg/mL (Cercospora arachidicola; 50 μg/mL, C. arachidicola)",inhibition at 50 µg/mL (Cercospora arachidicola),melting point,inhibition at 50 µg/mL (Pellicularia sasakii),"inhibition at 50 µg/mL (Rhizoctonia cerealis; 50 μg/mL, R. cerealis)","inhibition at 50 µg/mL (Alternaria solani; 50 μg/mL, A. solani)",inhibition at 50 µg/mL (Alternaria solani),inhibition at 50 µg/mL (Rhizoctonia cerealis),further results
CNC(=O)/C(=N/OC)c1ccccc1CO/N=C(\N)c1snc(Cl)c1Cl [CL04-25C],> 40%,100%,0%,14.7 ± 4.84%,66.7%,> 40%,57.9%,> 45%,40.4%,100%,44%,> 30%,122 to 124 °C,83.8%,100%,34.4%,> 30%,–,–
CO/N=C(/C(=O)NC1CC1)c1ccccc1CO/N=C(C)/C=C/c1snc(Cl)c1Cl [CL04-32C],19 ± 0.72%,100%,> 30%,31.6 ± 3.91%,73.3%,> 40%,57.9%,> 45%,71.9%,–,60%,> 30%,95 to 97 °C,67.6%,70.7%,47.5%,> 30%,> 50%,inhibition at 100 µg/mL (TMV [5]): 16 ± 7.71%
CO/N=C(/C(=O)OC)c1ccccc1CO/N=C(\C)c1snc(Cl)c1Cl [CL04-15A],> 40%,–,–,1.52 ± 0.62%,100%,–,100%,–,53%,–,50%,> 30%,73 to 75 °C,76.9%,85.5%,47.1%,> 30%,> 50%,inhibition at 50 µg/mL (Gibberella zeae): > 30%
"CO/C=C(/C(=O)OC)c1ccccc1Oc1cc(Oc2ccccc2C#N)ncn1 [Azoxystrobin, reference compound]",–,46.88%,–,–,–,–,–,–,–,71.43%,–,–,–,–,–,–,–,–,"Fungicidal activity inhibition, SS (Sclerotinia sclerotiorum): 88.10%; Fungicidal activity inhibition, BC (Botrytis cinerea): 91.18%; Fungicidal activity inhibition, PP (Physalospora piricola): 100%; Fungicidal activity inhibition, CA (Cercospora arachidicola): 55.56%; Fungicidal activity inhibition, PS (Pellicularia sasakii): 80.77%; Fungicidal activity inhibition, RC (Rhizoctonia cerealis): 84.06%; Fungicidal activity inhibition, AS (Alternaria solani): 75.00%"
"CNC(=O)/C(=N/OC)c1cc(C)c(C)cc1CO/N=C(\C)c1cc(Cl)ns1 [CL04-00, reference compound]",26.3 ± 2.47%,–,20.7 ± 2.1%,27.3 ± 1.24%,–,–,–,–,–,29.63% and 50.00%,–,–,–,–,–,–,–,–,"Anti-TMV activity inhibition, Protection effect (TMV [1]): 25.30 ± 1.47%; Anti-TMV activity inhibition, Inactivation effect (TMV [3]): 19.68 ± 1.10%; Anti-TMV activity inhibition, Curative effect (TMV [4]): 26.39 ± 1.22%; Anti-TMV activity inhibition, Induction effect (TMV [5]): 19.34 ± 1.14%; inhibition at 100 µg/mL (TMV [5]): 20.3 ± 2.16%"
CO/N=C(/C(=O)N[C@@H](C)CSC)c1ccccc1CO/N=C(\C)c1snc(Cl)c1Cl [CL04-22F],23.8 ± 3.42%,–,0%,1.52 ± 0.62%,52.9%,> 40%,45.5%,> 45%,32.8%,–,12.5%,–,35 to 37 °C,15.2%,76%,16.4%,–,> 50%,"inhibition at 50 µg/mL ([2]; Phytophthora infestans, read-out: Fungicidal activity inhibition, PI, 50 μg/mL, P. infestans (Mont.) de Bary): 17.1%; inhibition at 50 µg/mL (Gibberella zeae): > 30%"
CNC(=O)/C(=N/OC)c1ccccc1CO/N=C(\C)c1snc(Cl)c1Cl [CL04-22D],> 40%,100%,4.44 ± 0.85%,32.8 ± 3.36%,100%,–,100%,–,80.8%,100%,87.5%,–,79 to 81 °C,89.2%,100%,47.5%,> 30%,–,–
